The values below come from ChEMBL document CHEMBL5608170, “An insight into sustainable and green chemistry approaches for the synthesis of quinoline derivatives as anticancer agents” (Eur J Med Chem, 2024).

In brackets after ≈: the same amount, converted by molar mass.

Assay [1] concerns A549. The experiment in a line: Cytotoxicity against human A549 cells assessed as reduction in cell viability incubated for 24 hrs by MTT assay. The class given is functional, cell-based. As to conditions: A549, 24 h.
For assay [2], the system named is MCF7. The experiment in a line: Cytotoxicity against human MCF7 cells assessed as reduction in cell viability incubated for 24 hrs by MTT assay. It is filed as functional, cell-based. The note with it: MCF7, 24 h. In general terms: Tetrazolium assays rely on reduction of a dye to a coloured formazan, in cell work by metabolically active cells.
Assay [3] deals with HepG2. Description: Cytotoxicity against human HepG2 cells assessed as reduction in cell viability incubated for 24 hrs by MTT assay. It is filed as functional, cell-based. The note with it: HepG2, 24 h.
Assay [4] has as its system HCT-116. The experiment in a line: Cytotoxicity against human HCT-116 cells assessed as reduction in cell viability incubated for 24 hrs by MTT assay. It is filed as functional, cell-based. The note with it: HCT-116, 24 h.
The subject of assay [5] is HeLa. The experiment in a line: Growth inhibition of human HeLa cells by SRB assay. It is filed as functional. (In general: Sulforhodamine B stains cellular protein and so reports cell mass.)
Assay [6] deals with HCT 116 TP53(-/-). Description: Antiproliferative activity against human HCT116-p53-null cells assessed as reduction in cell viability by MTT assay. The class given is functional, cell-based.
In assay [7] the test system is MDA-MB-231. The experiment in a line: Cytotoxicity against human MDA-MB-231 cells assessed as reduction in cell growth measured for 48 hrs by MTT assay. The class given is functional, cell-based. As to conditions: MDA-MB-231, 48 h.
Assay [8] has as its system MDA-MB-231. Description: Cytotoxicity against human MDA-MB-231 cells assessed as reduction in cell viability incubated for 48 hrs by MTT assay. It is filed as functional, cell-based. The note with it: MDA-MB-231, 48 h.
The test system of assay [9] is HOP-92. Description: Growth inhibition of human HOP-92 cells at 10 uM by SRB assay relative to control. It is filed as functional. The note with it: read-out: GI.
For assay [10], the system named is CCRF-CEM. Description: Growth inhibition of human CCRF-CEM cells at 10 uM by SRB assay relative to control. It is filed as functional. As to conditions: read-out: GI.
The subject of assay [11] is UO-31. The experiment in a line: Growth inhibition of human UO-31 cells at 10 uM by SRB assay relative to control. It is filed as functional. The note with it: read-out: GI.
Assay [12] relates to A498. Description: Growth inhibition of human A498 cells at 10 uM by SRB assay relative to control. The class given is functional. As to conditions: read-out: GI.
In assay [13] the test system is HOP-62. The experiment in a line: Growth inhibition of human HOP-62 cells at 10 uM by SRB assay relative to control. The class given is functional. As to conditions: read-out: GI.
The subject of assay [14] is MCF7. The experiment in a line: Cytotoxicity against human MCF7 cells assessed as reduction in cell growth by MTT assay. It is filed as functional, cell-based.
Assay [15] deals with A549. The experiment in a line: Cytotoxicity against human A549 cells assessed as reduction in cell growth by MTT assay. The class given is functional, cell-based.
Assay [16] relates to HepG2. The experiment in a line: Cytotoxicity against human HepG2 cells assessed as reduction in cell growth by MTT assay. It is filed as functional, cell-based.
Assay [17] deals with PC-3. Description: Cytotoxicity against human PC-3 cells assessed as reduction in cell growth measured for 48 hrs by MTT assay. It is filed as functional, cell-based. As to conditions: PC-3, 48 h.
For assay [18], the system named is DU-145. Description: Cytotoxicity against human DU-145 cells assessed as reduction in cell growth measured for 48 hrs by MTT assay. The class given is functional, cell-based. The note with it: DU-145, 48 h.
A short description of assay [19]: Cytotoxicity against human HEp-2C cells assessed as reduction in cell viability incubated for 72 hrs by MTT assay. It is filed as functional, cell-based. The note with it: Hep2C.
For assay [20], the system named is HeLa. Description: Anticancer activity against human HeLa cells assessed as reduction in cell growth incubated for 48 hrs by MTT assay. It is filed as functional, cell-based.
In assay [21] the test system is MCF7. The experiment in a line: Anticancer activity against human MCF7 cells assessed as reduction in cell growth incubated for 48 hrs by MTT assay. It is filed as functional, cell-based. The note with it: MCF7, 48 h.
Assay [22] has as its system CAKI-1. The experiment in a line: Growth inhibition of human CAKI-1 cells at 10 uM by SRB assay relative to control. It is filed as functional. As to conditions: read-out: GI.
Assay [23] has as its system TK-10. Description: Growth inhibition of human TK-10 cells at 10 uM by SRB assay relative to control. It is filed as functional. The note with it: read-out: GI.
The test system of assay [24] is Hs-578T. Description: Growth inhibition of human Hs-578T cells at 10 uM by SRB assay relative to control. As to conditions: read-out: GI. It is filed as functional.
Assay [25] deals with A549. The experiment in a line: Antiproliferative activity against human A549 cells assessed as reduction in cell viability by MTT assay. It is filed as functional, cell-based.
Assay [26] concerns NCI-H460. Description: Antiproliferative activity against human NCI-H460 cells assessed as reduction in cell viability by MTT assay. It is filed as functional, cell-based.
Assay [27] deals with A549. The experiment in a line: Anticancer activity against human A549 cells assessed as reduction in cell growth incubated for 48 hrs by MTT assay. It is filed as functional, cell-based. As to conditions: A549, 48 h.

In the case of `N#CC1=C(N)Oc2c(ccc3cccnc23)C1c1ccc(Br)cc1` (configuration not stated), the concentration for half-maximal inhibition (IC50) in assay [1] was 38 mg/L (≈ 100 µM); in assay [2], 1.17 mg/L (≈ 3.09 µM); in [3], 1.41 mg/L (≈ 3.73 µM); in assay [4], 1.3 mg/L (≈ 3.44 µM).
With `CC(=O)NC1=NN(C(C)=O)C(c2cc3cc(Br)ccc3n3nnnc23)S1` (configuration not stated), the concentration for 50% growth inhibition (GI50) in assay [5] is less than 0.1 µM.
In assay [5], `CC(=O)NC1=NN(C(C)=O)C(c2cc3cc(Cl)ccc3n3nnnc23)S1` (configuration not stated) had a GI50 of less than 0.1 µM.
`N#CC1=C(N)Oc2c(cc(Cl)c3cccnc23)C1c1ccc(Br)cc1` (configuration not stated): the IC50 in [1] was 3.1 mg/L (≈ 7.51 µM); in assay [2], 0.99 mg/L (≈ 2.4 µM); in assay [3], 1.23 mg/L (≈ 2.98 µM); in [4], 5.81 mg/L (≈ 14.1 µM).
Take `Cc1ccc2ccc3c(c2n1)OC(N)=C(C#N)C3c1cccc(Cl)c1Cl` (configuration not stated): the IC50 in [2] was 1.24 mg/L (≈ 3.24 µM); in assay [3], 1.83 mg/L (≈ 4.79 µM).
Regarding `O=[N+]([O-])c1c(Nc2ccc(F)c(Cl)c2)nc2ccccc2c1Nc1ccc(F)c(Cl)c1`, the IC50 in assay [6] is 5.1 µM.
In the case of `O=C1N(c2ccc([N+](=O)[O-])cc2[N+](=O)[O-])c2[nH]c(=O)[nH]c(=O)c2C12c1ccccc1Nc1c2[nH]c(=O)[nH]c1=O` (configuration not stated), in assay [7], the IC50 was 10.6 µM.
Turning to `COc1ncc(-c2cc(-c3cn(Cc4ccccc4F)nn3)cc3ccc(C)nc23)cc1F`, the IC50 in [8] was 20.6 µM.
As for `Cc1cc(=O)n(C(=O)Nc2ccc(F)c(Cl)c2)c2cc(O)ccc12`, the inhibition of growth at 10 µM in assay [9] worked out at 27.4%; in assay [10] it was 58.6%; in [11] it was 30%; in assay [12], 20.5%; in [13] it was 17.6%.
With `COc1ccc(Nc2nc3ccccc3c(NCc3ccccc3Cl)c2[N+](=O)[O-])cc1`, the IC50 in [6] stood at 4.8 µM.
For `N#CC1C(=S)N=C2C(=C1c1ccc(F)cc1)CCC/C2=C\c1ccc(F)cc1` (configuration not stated), the IC50 in assay [14] worked out at 13.1 mg/L (≈ 33.7 µM); in [15], 28.4 mg/L (≈ 72.9 µM); in assay [16], 11.2 mg/L (≈ 28.8 µM).
For the molecule `O=C1N(c2ccc(Cl)cc2)c2[nH]c(=O)[nH]c(=O)c2C12c1ccccc1Nc1c2[nH]c(=O)[nH]c1=O` (configuration not stated), the IC50 in assay [17] worked out at 19.9 µM; in assay [18] it was 16.5 µM.
For `Clc1cccc(NCN2CCCc3ccccc32)c1`, in assay [19], the IC50 amounted to 11.9 µM.
Take `COc1cccc(-n2nnc3c2-c2ccc4cccnc4c2OC3)c1`: the figures for the IC50 in [20] and in assay [21] were 15.7 µM and 31.4 µM, respectively.
Consider `Cc1cc(=O)n(C(=O)Nc2ccccc2)c2cc(O)ccc12`, for which the inhibition of growth at 10 µM in assay [9] was determined as 16%; in assay [22] it was 12.4%; in [11], 23.1%; in [23] it was 82.9%; in [24], 11.5%.
Take `COc1ccccc1Nc1nc2ccccc2c(Nc2ccccc2OC)c1[N+](=O)[O-]`: the IC50 in [25] was 6.5 µM; in [26] it was 5.4 µM.
`Cc1cc(C)cc(-n2nnc3c2-c2ccc4cccnc4c2OC3)c1`: the IC50 in [20] is 11.4 µM; in assay [27], 32.5 µM; in assay [21] it was 16.9 µM.
Take `O=C1N(c2cccnc2)c2[nH]c(=O)[nH]c(=O)c2C12c1ccccc1Nc1c2[nH]c(=O)[nH]c1=O` (configuration not stated): the IC50 in assay [17] worked out at 15.4 µM; in assay [18] it was 15 µM; in assay [7], 7.97 µM.
In the case of `Cc1ccc2ccc3c(c2n1)OC(N)=C(C#N)C3c1cccc(Cl)c1` (configuration not stated), the IC50 is 5.79 mg/L (≈ 16.6 µM) in [2] and 3.01 mg/L (≈ 8.65 µM) in [3].
For the molecule `N#CC1C(=S)N=C2C(=C1c1ccc(Cl)cc1)CCC/C2=C\c1ccc(Cl)cc1` (configuration not stated), the IC50 in [14] came out at 3.17 mg/L (≈ 7.49 µM); in assay [15], 25.5 mg/L (≈ 60.3 µM); in assay [16], 2.86 mg/L (≈ 6.76 µM).

A word on the IC50: it is the concentration at which inhibition is half-maximal. One may read the GI50 as the concentration that inhibits growth by half. High values mean less potent growth inhibition, low ones more potent growth inhibition.
